Measurements published in paper PMC10669426, “Exploring the Use of Hydroxytyrosol and Some of Its Esters in Food-Grade Nanoemulsions: Establishing Connection between Structure and Efficiency” (Antioxidants, 2023).

Legend:
[1] = DPPH radical assay, EC50 values at different reaction times; format: biochemical; conditions: T = 25 °C
Protocol: To check if the same insignificant changes hold for HT derivatives, we further tested the point by determining the EC50 values for the different HT derivatives. A UV-Vis Powerwave XS Microplate Reader (96-well microplate, Bio-Tek Instruments, Inc., Winooski, VT, USA) was employed to monitor the loss of DPPH^● (from reaction with each AO) at T = 25.0 ± 0.1 °C. The absorbance of each well was recorded (λ = 515 nm) at 60 s intervals for a 4000 s period, Figure 3.
Each set of experiments was performed in triplicate and, in some instances, in quadruplicate, and the reported EC50 values in Table 1 (determined from data in Figure 3) are the average of these repetitions.

[2] = Distribution and effective interfacial concentrations of AOs in fish oil nanoemulsions, calculated from partition constants; format: physicochemical; conditions: for order of the percentages of AOs in the interfacial region (%AOI): at any ΦI value
Text: The values of the partition constants PO^I and PW^I in Table 3 were used to estimate the distribution of the AOs in the intact nanoemulsions. Details of the calculations and the equations employed are not given here to keep focus and for the sake of clarity, but can be easily found elsewhere.
In Equation (5), nT represents the total number of moles of the antioxidant, VT the total volume of the emulsion, and ΦI is the interfacial volume fraction. To distinguish between the stoichiometric and effective concentrations, we employed square brackets, [ ], defined as molarity of total emulsion volume, and parenthesis, ( ), defined as molarity of the interfacial region, respectively. The reader must be aware that VI, is the sum of all of the interfacial volumes of all of the aggregates present in the system, and that it matches that of the total volume of the added surfactant. Emulsion droplets and other association colloids as micelles present in the system are broken and reformed at rates much faster than those of the relevant chemical reactions, allowing rapid transfer of materials between them. That is, they are in dynamic equilibrium. (5) (AOI)=nI/VI=nT(%AOI)/VI=nT/VT(%AOI)/VI/VT=[AOT](%AOI)/ΦI

[3] = Relative oxidative stability of fish oil nanoemulsions, formation of conjugated dienes (AOCS Ti-1a-64); conditions: for antioxidant efficiency order (time needed to reach 0.5% conjugated dienes): 1:9 fish nanoemulsions, T = 25 °C, [AOT] = 0.1 mM
Text: Accelerated tests are commonly used to assess the relative stability of emulsions because of their reproducibility. In the present work, we used the AOCS official standard method Ti-1a-64 to determine the relative antioxidant efficiency of the antioxidants under a set of standardized conditions. For this purpose, we measured the formation of conjugated dienes (CD) with time following the procedure described in detail elsewhere. […] We, however, controlled their stability visually; no phase separation was detected.
We estimated the relative oxidative stability of fish oil nanoemulsions by controlling the extent of lipid oxidation under a set of standardized conditions. For this purpose, we measured the level of oxidation on the basis of the production of conjugated dienes (CD) with time. The method, identical to the AOCS official standard method Ti-1a-64, is rather sensitive and reproducible and suitable for monitoring the early stages of lipid oxidation. Figure 12A is illustrative of a typical oxidation kinetics experiment and where one can observe a constant small increase (lag time) up to a sudden increase in the formation of conjugated dienes (CD). The relative efficiency was assessed by determining the necessary time to reach an increase in CD production of 0.5%. Further details on the experimental procedure and calculations can be found elsewhere.

[4] = Chemical kinetic method (pseudophase model) with the probe 16-ArN2^+ in intact fish oil-in-water nanoemulsions; format: physicochemical; conditions: intact 1:9 fish oil-in-water nanoemulsions, T = 25 °C; for 10^2 kI, interfacial rate constant for the reaction between 16ArN2^+ and AO: values given as 10^2 kI
Protocol: The distribution of HT and its derivatives was determined by using a chemical kinetic method, as have been published elsewhere based on the reaction between a chemical probe (16-ArN2^+, specifically localized at the interface) and the AOs. The changes detected in the observed rate constant for this reaction (kobs) at different surfactant volume fractions (ΦI) were evaluated according to the pseudophase kinetic model developed by Romsted and Bravo-Díaz and explained in detail elsewhere.
The chemical probe 16-ArN2^+ reacts, virtually, with any antioxidant as described elsewhere and the reaction can be monitored by UV-Vis with the aid of a specially developed derivatization protocol. […] The absorbance of the resulting azo dye was monitored at λ = 572 nm once diluted with a 50:50 (v:v) BuOH:EtOH mixture. This dilution step is critical and its purpose is to obtain an optically transparent, homogeneous solution. Details of the complete procedure have been published elsewhere.
Succinctly, after initiating the reaction between 16-ArN2^+ and the antioxidants in the intact emulsion, constant volumes (200 µL) of the nanoemulsion were extracted at given time periods and rapidly added to numbered glass tubes to quench the reaction. Because the quenching reaction is much faster than the reaction between 16-ArN2^+ and the antioxidants, the absorbance of the formed azo dye is proportional to the concentration of unreacted 16-ArN2^+ so that the decrease in absorbance of the azo dye with time can be used to determine kobs. For this purpose, we fitted the experimental (absorbance, time) pairs of data to the integrated first-order rate equation by using a non-linear least squares method provided by a commercial computer program. Figure 4 illustrates the typical variations of the absorbance of the azo dye versus time as determined in the intact fish oil-in-water nanoemulsions. The solid lines are the fitting curves to the integrated and linearized first-order equations.
The relationships between kobs and the partition constants of the AOs between the oil-interfacial, PO^I, and aqueous-interfacial, PW^I, regions are given by Equations (1)–(3), and the partition constants were estimated by fitting the variations of 1/kobs, with ΦI at constant stoichiometric concentration of the antioxidant ([AOT] = 2.5 × 10^−3 M), ΦW (ΦW = 0.9) and ΦO (ΦO = 0.1) as explained in detail elsewhere.
The experimental (kobs, ΦI) pairs of data were fitted to the equations derived from the pseudophase model Equations (1)–(3), which hold for very hydrophilic (Equation (1)) and very hydrophobic (Equation (2)) antioxidants and for those of intermediate hydrophobicity (3).

[5] = Shake-flask partition in binary stripped fish oil–water mixtures in the absence of emulsifier; format: physicochemical; conditions: binary 1:9 (v:v) fish oil:water mixture, 25 °C; for partition constant PW^O: average of four runs; for %AOO, percentage present in the oil phase / %AOW, percentage present in the aqueous phase: no emulsifier, pH 3.0 buffer
Protocol: The partition constants, PW^O, of HT and some of its esters were determined, by employing the shake-flask method, in binary stripped fish oil–water mixtures in the absence of emulsifier. Sets of four 1:9 (v:v, oil:water, total volume = 10 mL) binary mixtures, each one containing the same AO, were prepared by stirring the mixture at high speed for 1 min. HT and the C1–C3 derivatives were dissolved in the buffered aqueous solution; meanwhile, those with longer alkyl chains were dissolved in the fish oil phase. The final stoichiometric concentration of AOs was 3.5 mM in all samples. Mixtures were stirred at high speed for 2 min and then equilibrated at T = (25 ± 1) °C for at least 24 h in the dark. The resulting two phases were then divided by centrifugation. Concentrations of the AOs in each phase were estimated by interpolation in previously prepared calibration curves by employing UV-Vis (λ = 285 nm). Further details on the method have been published elsewhere.
The reported PW^O values in Table 2 are average of the four runs. The PW^O values for the more hydrophobic antioxidants are not reported because of the high uncertainty in their values, as the ratio of percentages may be susceptible to small errors in the determination of the values of the AO concentrations in the aqueous phase. In any case, PW^O values higher than 150 indicate that AOs are, essentially, water insoluble.

SMILES | EC50 ([1]; t = 5 min) | EC50 ([1]; t = 15 min) | EC50 ([1]; t = 30 min) | EC50 ([1]; t = 60 min) | order of the percentages of AOs in the interfacial region (%AOI) [2] | antioxidant efficiency order (time needed to reach 0.5% conjugated dienes) [3] | partition constant PO^I (oil-interfacial) [4] | partition constant PW^I (aqueous-interfacial) [4] | 10^2 kI, interfacial rate constant for the reaction between 16ArN2^+ and AO [4] | partition constant PW^O [5] | %AOO, percentage present in the oil phase [5] | %AOW, percentage present in the aqueous phase [5] | effective interfacial concentration relative to the stoichiometric concentration ([2]; lowest surfactant fraction ΦI = 0.005, constant o/w ratio) | decrease in efficiency on an increase in ΦI of ∼8 times ([3]; increase in ΦI of ∼8 times) | increase in the oxidative stability of nanoemulsion compared with the control ([3]; ΦI = 0.005)
CCC(=O)OCCc1ccc(O)c(O)c1 [C3] | 0.345 ± 0.004 mol AO/mol DPPH^● | 0.299 ± 0.002 mol AO/mol DPPH^● | 0.289 ± 0.005 mol AO/mol DPPH^● | 0.280 ± 0.003 mol AO/mol DPPH^● | %HTI < %C3I < %C16I < %C12I < %C10I < %C8I | C8 > C10 > C16 > C3 > HT >> control | 28 ± 3 | 229 ± 40 | 27.7 ± 4.7 M^−1 s^−1 | 7.8 ± 0.4 | 46.37% | 53.63% | – | – | –
CCCCCCCCCCCC(=O)OCCc1ccc(O)c(O)c1 [C12] | 0.345 ± 0.005 mol AO/mol DPPH^● | 0.319 ± 0.004 mol AO/mol DPPH^● | 0.309 ± 0.011 mol AO/mol DPPH^● | 0.294 ± 0.006 mol AO/mol DPPH^● | %HTI < %C3I < %C16I < %C12I < %C10I < %C8I | – | 16 ± 2 | – | 25.3 ± 0.7 M^−1 s^−1 | – | – | – | – | – | –
CCCCCCCC(=O)OCCc1ccc(O)c(O)c1 [C8] | 0.295 ± 0.005 mol AO/mol DPPH^● | 0.265 ± 0.005 mol AO/mol DPPH^● | 0.256 ± 0.007 mol AO/mol DPPH^● | 0.239 ± 0.003 mol AO/mol DPPH^● | %HTI < %C3I < %C16I < %C12I < %C10I < %C8I | C8 > C10 > C16 > C3 > HT >> control | 22 ± 2 | – | 21.0 ± 0.3 M^−1 s^−1 | – | – | – | about 100 times | ~1.5 times | ~10 times
CCCCCCCCCCCCCCCC(=O)OCCc1ccc(O)c(O)c1 [C16] | 0.331 ± 0.011 mol AO/mol DPPH^● | 0.305 ± 0.006 mol AO/mol DPPH^● | 0.302 ± 0.011 mol AO/mol DPPH^● | 0.298 ± 0.007 mol AO/mol DPPH^● | %HTI < %C3I < %C16I < %C12I < %C10I < %C8I | C8 > C10 > C16 > C3 > HT >> control | 13 ± 2 | – | 25.0 ± 0.8 M^−1 s^−1 | – | – | – | – | – | –
OCCc1ccc(O)c(O)c1 [HT, Hydroxytyrosol] | 0.323 ± 0.005 mol AO/mol DPPH^● | 0.287 ± 0.004 mol AO/mol DPPH^● | 0.279 ± 0.004 mol AO/mol DPPH^● | 0.258 ± 0.004 mol AO/mol DPPH^● | %HTI < %C3I < %C16I < %C12I < %C10I < %C8I | C8 > C10 > C16 > C3 > HT >> control | – | 71 ± 12 | 14.2 ± 0.1 M^−1 s^−1 | 0.3 ± 0.1 | 3.01% | 96.99% | – | – | –
O=COCCc1ccc(O)c(O)c1 [C1] | 0.338 ± 0.005 mol AO/mol DPPH^● | 0.296 ± 0.003 mol AO/mol DPPH^● | 0.288 ± 0.003 mol AO/mol DPPH^● | 0.277 ± 0.003 mol AO/mol DPPH^● | – | – | – | – | – | – | – | – | – | – | –
